Assay results published in patent US20240000950A1, “THERAPEUTIC CURE-PRO COMPOUNDS FOR TARGETED DEGRADATION OF BET DOMAIN PROTEINS, AND METHODS OF MAKING AND USING THEM” (CORNELL UNIVERSITY, priority 2020, published 2024).
“Also recorded” adds a separate entry of the source.

How the values were obtained:
Assay type in all cases: cell-based
[1] = tested on: caspase 3/7 activity in MOLM13 cells; test: Caspase-Glo 3/7 assay, Molm-13 cells; conditions: 24 h, co-treated with VHL ligand VHL298
Experimental: (§1) All cell lines were purchased from ATCC or DSMZ and grown at 37° C. with 5% C02. Human HeLa cells were cultured in complete growth medium (Dulbecco's modified Eagle's medium (DMEM) supplemented with 10% FBS); MCF7 cells were cultured in complete growth medium (Dulbecco's modified Eagle's medium (DMEM) supplemented with 10% FBS and 0.01 mg/ml human recombinant insulin (Sigma Aldrich); Namalwa and MOLM-13 cells were cultured in complete growth medium (RPMI 1640 medium supplemented with 10% FBS); MV-4-11 were cultured in complete growth medium (Iscove's Modified Dulbecco's medium, supplemented with 10% FBS); HCT116 cells were cultured in complete growth medium (McCoy's 5a Medium supplemented with 10% FBS). […]
(§2) Caspase-glo® assay (Promega) was conducted following the manufacturer's recommendations. […] After a 24 h incubation, 100 μl of the […] substrate was added per well and luminescence was read on a Spectramax M5 (Molecular Devices).
(§3) Molm-13 (FIG. 76A) or Namalwa (FIG. 76B) cells (5×104) were treated for 24 hours with the compounds solubilized in DMSO in white 96 well plates (10 nM-10 μM solubilized in DMSO). FIG. 76 is a bar graph depiction of fold increase of apoptosis assessed via caspase 3/7 activity using the Caspase-Glo assay (Promega) described above.

Molm-13 cells = test: CellTiter-Glo cell viability, Molm-13 cells
Experimental: as §1
(§4) CellTiter-Glo® 2.0 Cell Viability Assay (Promega) was carried out following the manufacturer's recommendations. […] After a 72 h incubation, 100 ul of the CellTiter-Glo® substrate was added per well and luminescence was read on a Spectramax M5 (Molecular Devices). […]
Molm-13 cells (1×104) were treated for 24 (FIG. 77A) or 72 (FIG. 77B) hours were treated in white 96 well plates with the compounds (10 nM-10 μM solubilized in DMSO). After indicated times cell viability was assessed using the CellTiter-Glo® Luminescent Cell Viability Assay (Promega) and the signal detected on a SpectraMax M5 (Molecular Devices).

[2] = tested on: caspase 3/7 activity in Namalwa cells; test: Caspase-Glo 3/7 assay, Namalwa cells; conditions: 24 h, co-treated with VHL ligand VHL298
Experimental: All cell lines were purchased from ATCC or DSMZ and grown at 37° C. with 5% C02. […]
as §2
Namalwa cells (5×104) were treated for 24 hours with the compounds solubilized in DMSO. FIG. 57 is a bar graph depiction of fold increase of apoptosis assessed via caspase 3/7 activity using the Caspase-Glo assay (Promega) described above.
as §3

BRD4 [3] = molecular target: T1, BRD4 (Homo sapiens, UniProt O60885); test: CURE-PRO-mediated BRD4 degradation in MCF7 cells with VHL ligands, WES (ProteinSimple); parameters: endogenous in cells; host or cells: HeLa, MCF7 or HCT116
Experimental: as §1, with “FBS). For cellular degradation of BRD4 studies, cells were seeded in a 12-well plate at 70-80% confluency, allowed to attach overnight, and incubated with the indicated compounds for the indicated time.” for “FBS).”
WES Simple analysis was performed on WES system (ProteinSimple-Biotechne) according to the manufacturer's instructions. Total protein concentrations of cell lysates were determined by the Pierce BCA kit (Thermo Fisher). […]
MCF7 cells (3×10^6) were treated for 4-24 hours continually (FIG. 72), or treated for 4 h, washed and incubated for a further 4-24 h with the compounds solubilized in DMSO. […] The total protein concentration was quantified by the BCA method (ThermoFisher Sciences). […]

BRD4 [4] = molecular target: T1, BRD4; test: Summary of E3 ligase directed degradation of BRD4, estimated from Western Blot or WES (Tables 1-6); parameters: endogenous in cells; host or cells: HeLa, MCF7 or HCT116
How it was run: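 HeLa, MCF7 or HCT116 cells treated 24 h with compounds in DMSO, lysed in RIPA buffer; BRD4 levels read by Western blot (ECL detection) or capillary WES with HRP detection. Check mark denotes 30% to 70% or higher protein degradation.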

Namalwa cells = test: CellTiter-Glo cell viability, Namalwa cells; conditions: 72 h, 10 nM-10 μM, co-dosed 1:1 with CRBN ligand 8047, compared to monomer alone
Experimental: as §1, with “FBS). For cellular degradation of BRD4 studies, cells were seeded in a 12-well plate at 70-80% confluency, allowed to attach overnight, and incubated with the indicated compounds for the indicated time.” for “FBS).”
as §4
Namalwa cells (1×104) were treated for 72 hours with the compounds solubilized in DMSO. […] Cellular viability was determined using the CellTiter-Glo® Luminescent Cell Viability Assay (Promega) described above. […]

BRD4 [5] = molecular target: T1, BRD4; test: CURE-PRO-mediated BRD4 degradation in HeLa cells, Western blot; parameters: endogenous in cells; host or cells: HeLa; conditions: 24 h
Experimental: (§5) All cell lines were purchased from ATCC or DSMZ and grown at 37° C. with 5% C02. Human HeLa cells were cultured in complete growth medium (Dulbecco's modified Eagle's medium (DMEM) supplemented with 10% FBS); MCF7 cells were cultured in complete growth medium (Dulbecco's modified Eagle's medium (DMEM) supplemented with 10% FBS and 0.01 mg/ml human recombinant insulin (Sigma Aldrich); Namalwa and MOLM-13 cells were cultured in complete growth medium (RPMI 1640 medium supplemented with 10% FBS); MV-4-11 were cultured in complete growth medium (Iscove's Modified Dulbecco's medium, supplemented with 10% FBS); HCT116 cells were cultured in complete growth medium (McCoy's 5a Medium supplemented with 10% FBS). For cellular degradation of BRD4 studies, cells were seeded in a 12-well plate at 70-80% confluency, allowed to attach overnight, and incubated with the indicated compounds for the indicated time. When indicated, a 15-minute pretreatment with 10 μM pomalidomide, 10 μM VHL298, 10 μM Nutlin3a, 1 μM MG-132 or 1 μM Carfilzomib was performed before the addition of CURE-PROs. For washout studies, after CURE-PRO treatment, media was aspirated and incubated with complete medium for the indicated time before lysis.
(§6) Anti-BRD4 (13440, 1:1,000 dilution for Western Blot and 1:25 dilution for ProteinSimple); Anti-BRD2 (5848 1:1,000 dilution for Western Blot and 1:25 dilution for ProteinSimple); β-Actin (3700, 1:2,000 dilution for Western Blot), β-Actin (4970, 1:50 dilution for ProteinSimple) anti-mouse IgG-HRP, and anti-rabbit IgG-HRP antibodies were purchased Cell Signaling Technology. Anti-GAPDH (600-401-A33, 1:100 dilution for ProteinSimple) was purchased from Rockland Immunochemicals, Inc. Anti-BRD3 (sc-81202, 1:200 dilution for Western Blot) was purchased from Santa Cruz Biotechnology.
HeLa, MCF7, or HCT116 cells (2.5-3×10^6) were treated for 24 hours with the indicated compounds solubilized in DMSO. The cells were washed in ice-cold PBS and were then lysed in RIPA lysis buffer (150 mM NaCl, 5 mM EDTA, 1% NP-40, 0.5% sodium deoxycholate, 0.1% SDS, 50 mM Tris, pH 8.0) with Roche protease inhibitor complete cocktail and phosphatase inhibitors (10 mM sodium fluoride, 10 mM sodium pyrophosphate, 1 mM sodium orthovanadate and 20 mM β-glycerophosphate). The total protein concentrations were determined by Bradford Protein Assay and 10-20 μg of protein was loaded onto 4-15% Tris-Glycine gradient gels (Biorad). After standard gel electrophoresis, the separated proteins were transferred to PVDF membrane by wet transfer. The immunoblots were then blocked for 1 hour in 5% skim milk in TBST or 5% BSA in TBST, according to manufacturer's instructions, before an overnight incubation at 4° C. with indicated antibodies and membranes. Membranes were then incubated with the appropriate horseradish peroxidase-conjugated secondary antibodies (1:5,000 dilution) for 1 h at room temperature and the bands were visualized using the Clarity Max Western ECL Substrate (Biorad) and the ChemiDoc Imaging System (Biorad). Signal was detected with ECL Western Blotting Substrate (Pierce) and X-ray film processed with a Konica SRX-101 X-ray film processor or captured by Bio-Rad's Chemidoc Imaging system.
HeLa cells (2.5×10^6) were treated for 24 hours with the sample compounds solubilized in DMSO. Compounds were added at 1-10 μM each. Standardized protein samples were electrophoresed and imaged as described in the immunoblotting description above. FIGS. 6-18 depicts the CURE-PRO-mediated BRD4 degradation for BRD monomers (JQ1 derivatives comprising of catechol linkers), and CRBN ligands, 8048 and 8049 (pomalidomide derivatives comprising boronic acid linkers) combined in a 1:1 ratio.
HeLa cells (2.5×10^6) were treated for 24 hours with the compounds solubilized in DMSO. The compounds were added at 10 μM each. Standardized protein samples were electrophoresed and imaged as described in the immunoblotting section above. […]

BRD4 [6] = molecular target: T1, BRD4; test: CURE-PRO-mediated BRD4 degradation in HeLa cells, WES capillary electrophoresis (ProteinSimple); parameters: endogenous in cells; host or cells: HeLa; conditions: 4-24 h, 10 μM each, co-dosed with CRBN ligand 8047, washed after 4 h
Experimental: as §5, §6
WES Simple analysis was performed on WES system (ProteinSimple-Biotechne) according to the manufacturer's instructions. Total protein concentrations of cell lysates were determined by the Pierce BCA kit (Thermo Fisher). 3 μL of 0.3 μg/uL of the protein lysate was loaded onto a 12- to 230-kDa WES assay plate (ProteinSimple) where 300 nL sample was withdrawn through a capillary, subjected to electrophoretic separation of proteins by size, and followed by the simultaneous, HRP-based detection of proteins using the Anti-Rabbit Detection Module (Proteinsimple: #DM-001). The electropherograms were checked then the automatic peak detection was manually corrected if it was required.
HeLa cells (2.5×10^6) were treated for 4-24 hours with the compounds solubilized in DMSO. After 4 hours, indicated points were washed and cells were left in full growth media. Compounds were added at 10 μM each. […]

Structure (SMILES) | caspase 3/7 activity [1] | loss of cell viability (CellTiter-Glo) (Molm-13 cells; 24 h and 72 h, 10 nM-10 μM, co-dosed 1:1 with VHL ligand 8305) | cell viability (CellTiter-Glo) (Molm-13 cells; co-treated with VHL ligand VHL298) | caspase 3/7 activity [2] | BRD4 degradation after pre-incubation with VHL298 (BRD4 [3]; 10 μM each with VHL ligand 8305, VHL298 preincubated at equimolar concentration) | BRD4 degradation (BRD4 [3]; 10 μM each, 1:1 with VHL ligand 8305, 4-24 h, with washout where stated) | Degradation of BRD4, combination with VHL ligand [drawing 442] (BRD4 [4]; Table 3, aromatic 1,2-diol-containing VHL ligand drawn as drawing 442 (by the text apparently 8305)) | loss of cell viability (CellTiter-Glo) (Namalwa cells) | Degradation of BRD4, combination with CRBN ligand [drawing 421] (BRD4 [4]; Table 1, CRBN ligand drawn as drawing 421 (by the text apparently 8047)) | BRD4 degradation with pomalidomide and the BRD ligand (no 8047) (BRD4 [5]; 10 μM) | BRD4 degradation after preincubation with pomalidomide (BRD4 [5]; 10 μM, 1:1 with CRBN ligand 8047, pomalidomide preincubated 15 min at equimolar concentration) | BRD4 degradation (BRD4 [5]; BRD ligand (monomer) alone) | BRD4 degradation, time dependence and washout (BRD4 [6])
CCNC(=O)C[C@@H]1N=C(c2ccc(Cl)cc2)c2cc(B(O)O)ccc2-n2c(C)nnc21 [BRD-E50, ((4S)-6-(4-chlorophenyl)-4-(2-(ethylamino)-2-oxoethyl)-1-methyl-4H-benzo[f][1,2,4]triazolo[4,3-a] [1,4]diazepin-8-yl)boronic acid] | does not increase caspase activity | marked loss in cell viability; also recorded: a greater loss of cell viability | decreases levels of cell viability to similar levels of BRD-E50 treatment alone | does not increase caspase activity | attenuates CURE-PRO mediated BRD4 degradation; also recorded: No degradation is noted; also recorded: inhibited CURE-PRO mediated degradation; also recorded: inhibits the degradation of BRD4 | directs degradation of BRD4 as early as 4 h, with sustained degradation 24 h after wash out; also recorded: marked BRD4 degradation after 4 h with sustained degradation for up to 8 h after drugs are washed out | ✓ (A black check mark indicates efficacy of 30% to 70% or higher protein degradation) |  |  |  |  |  | 
CCNC(=O)C[C@@H]1N=C(c2ccc(Cl)cc2)c2cc(-c3cccc(B(O)O)c3)ccc2-n2c(C)nnc21 [BRD-E72, (3-((4S)-6-(4-chlorophenyl)-4-(2-(ethylamino)-2-oxoethyl)-1-methyl-4H-benzo[f][1,2,4]triazolo[4,3-a][1,4]diazepin-8-yl)phenyl)boronic acid] |  |  |  |  |  |  |  | the dose-response curves shifted towards the left; also recorded: marked loss in cell viability | ✓ (A black check mark indicates efficacy of 30% to 70% or higher protein degradation) | failed to induce BRD4 degradation | inhibition of CURE-PRO-mediated BRD4 degradation | no change in expression is observed | marked BRD4 degradation after 4 h with sustained degradation for up to 8 h after drugs are washed out
